From patent US12138256B2, “Treatment of cardiopulmonary disorders” (Bayer Aktiengesellschaft, priority 2021, dated 2024)
Several values for one entry are separate records, joined by “and”; a condition that tells them apart may be missing. Equal entries are not always repeated.

Test system: thromboxane analog U46619 induced PAH in minipigs
Experiment: Haemodynamics (PAP, BP) in the anesthetized thromboxane challenged PAH minipig after inhaled (nebulized) application (C-2.1)
Format: in vivo, Göttingen minipig
Conditions: inhaled; for PAP % changes vs prevalue, mean: n = 3; for BP % change vs. baseline / PAP % change vs. baseline: individual animals
Outline: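 Anesthetized, ventilated Göttingen minipigs (2-6 kg) given continuous infusion (0.3-0.75 μg/kg/min) to raise mean PAP above 25 mmHg, dosing starting after a 30 min plateau. Compound in 1% DMSO/0.2% citric acid, pH 8, nebulized via Aeroneb Pro into the inspiratory arm (~7 min; stock 300 μg/kg). PAP by Swan-Ganz catheter, BP via carotid catheter.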

[1] = 100 μg/kg nominal dose, time 80 min
[2] = 100 μg/kg nominal dose, time 90 min
[3] = 100 μg/kg nominal dose, time 100 min
[4] = 100 μg/kg nominal dose, time 110 min
[5] = 100 μg/kg nominal dose, time 120 min
[6] = 100 μg/kg nominal dose, time 130 min
[7] = 100 μg/kg nominal dose, time 140 min
[8] = 100 μg/kg nominal dose, time 150 min
[9] = 100 μg/kg nominal dose, time 160 min
[10] = 100 μg/kg nominal dose, time 170 min
[11] = 100 μg/kg nominal dose, time 180 min

O=C(O)c1ccc(CCN(CCc2ccccc2OCc2ccc(-c3ccc(C(F)(F)F)cc3)cc2Cl)[C@H]2CCCc3nc(C(=O)O)ccc32)cc1 [comparative example 11, (5S)-5-{[2-(4-carboxyphenyl)ethyl][2-(2-{[3-chloro-4′-(trifluoromethyl)[biphenyl]-4-yl]methoxy}phenyl)ethyl]amino}-5,6,7,8-tetrahydroquinoline-2-carboxylic acid]
PAP % changes vs prevalue, mean (10 μg/kg nominal dose, time 0 min): 0%
PAP % changes vs prevalue, mean (10 μg/kg nominal dose, time 10 min): 0.6%
PAP % changes vs prevalue, mean (10 μg/kg nominal dose, time 20 min): 0.2%
PAP % changes vs prevalue, mean (10 μg/kg nominal dose, time 30 min): −0.7%
PAP % changes vs prevalue, mean (10 μg/kg nominal dose, time 40 min): −1.5%
PAP % changes vs prevalue, mean (10 μg/kg nominal dose, time 50 min): −2.3%
PAP % changes vs prevalue, mean (10 μg/kg nominal dose, time 60 min): −3.5%
PAP % changes vs prevalue, mean (10 μg/kg nominal dose, time 70 min): −4.2%
PAP % changes vs prevalue, mean (10 μg/kg nominal dose, time 80 min): −3.7%
PAP % changes vs prevalue, mean (10 μg/kg nominal dose, time 90 min): −4.3%
PAP % changes vs prevalue, mean (10 μg/kg nominal dose, time 100 min): −5.3%
PAP % changes vs prevalue, mean (10 μg/kg nominal dose, time 110 min): −6.2%
PAP % changes vs prevalue, mean (10 μg/kg nominal dose, time 120 min): −6.7%
PAP % changes vs prevalue, mean (10 μg/kg nominal dose, time 130 min): −6.2%
PAP % changes vs prevalue, mean (10 μg/kg nominal dose, time 140 min): −7%
PAP % changes vs prevalue, mean (10 μg/kg nominal dose, time 150 min): −7.6%
PAP % changes vs prevalue, mean (10 μg/kg nominal dose, time 160 min): −7.6%
PAP % changes vs prevalue, mean (10 μg/kg nominal dose, time 170 min): −8.2%
PAP % changes vs prevalue, mean (10 μg/kg nominal dose, time 180 min): −8.0%
PAP % changes vs prevalue, mean (10 μg/kg nominal dose, time 190 min): −7.8%
PAP % changes vs prevalue, mean (10 μg/kg nominal dose, time 200 min): −7.3%
PAP % changes vs prevalue, mean (10 μg/kg nominal dose, time 210 min): −7.5%
PAP % changes vs prevalue, mean (10 μg/kg nominal dose, time 220 min): −7.2%
PAP % changes vs prevalue, mean (10 μg/kg nominal dose, time 230 min): −7.2%
PAP % changes vs prevalue, mean (10 μg/kg nominal dose, time 240 min): −7.6%
PAP % changes vs prevalue, mean (30 μg/kg nominal dose, time 0 min): 0%
PAP % changes vs prevalue, mean (30 μg/kg nominal dose, time 10 min): 0.3%
PAP % changes vs prevalue, mean (30 μg/kg nominal dose, time 20 min): −2.0%
PAP % changes vs prevalue, mean (30 μg/kg nominal dose, time 30 min): −4.6%
PAP % changes vs prevalue, mean (30 μg/kg nominal dose, time 40 min): −7.8%
PAP % changes vs prevalue, mean (30 μg/kg nominal dose, time 50 min): −9.8%
PAP % changes vs prevalue, mean (30 μg/kg nominal dose, time 60 min): −11.8%
PAP % changes vs prevalue, mean (30 μg/kg nominal dose, time 70 min): −14.1%
PAP % changes vs prevalue, mean (30 μg/kg nominal dose, time 80 min): −14.2%
PAP % changes vs prevalue, mean (30 μg/kg nominal dose, time 90 min): −14.4%
PAP % changes vs prevalue, mean (30 μg/kg nominal dose, time 100 min): −14.8%
PAP % changes vs prevalue, mean (30 μg/kg nominal dose, time 110 min): −15.3%
PAP % changes vs prevalue, mean (30 μg/kg nominal dose, time 120 min): −15.3%
PAP % changes vs prevalue, mean (30 μg/kg nominal dose, time 130 min): −15.5%
PAP % changes vs prevalue, mean (30 μg/kg nominal dose, time 140 min): −15.3%
PAP % changes vs prevalue, mean (30 μg/kg nominal dose, time 150 min): −16.3%
PAP % changes vs prevalue, mean (30 μg/kg nominal dose, time 160 min): −16.3%
PAP % changes vs prevalue, mean (30 μg/kg nominal dose, time 170 min): −14.9%
PAP % changes vs prevalue, mean (30 μg/kg nominal dose, time 180 min): −14.7%
PAP % changes vs prevalue, mean (30 μg/kg nominal dose, time 190 min): −15.1%
PAP % changes vs prevalue, mean (30 μg/kg nominal dose, time 200 min): −15.3%
PAP % changes vs prevalue, mean (30 μg/kg nominal dose, time 210 min): −13.8%
PAP % changes vs prevalue, mean (30 μg/kg nominal dose, time 220 min): −13.6%
PAP % changes vs prevalue, mean (30 μg/kg nominal dose, time 230 min): −12.8%
PAP % changes vs prevalue, mean (30 μg/kg nominal dose, time 240 min): −13.4%
PAP % changes vs prevalue, mean (100 μg/kg nominal dose, time 0 min): 0%
PAP % changes vs prevalue, mean (100 μg/kg nominal dose, time 10 min): −2.1%
PAP % changes vs prevalue, mean (100 μg/kg nominal dose, time 20 min): −7.2%
PAP % changes vs prevalue, mean (100 μg/kg nominal dose, time 30 min): −14.6%
PAP % changes vs prevalue, mean (100 μg/kg nominal dose, time 40 min): −18.1%
PAP % changes vs prevalue, mean (100 μg/kg nominal dose, time 50 min): −22.2%
PAP % changes vs prevalue, mean (100 μg/kg nominal dose, time 60 min): −25.1%
PAP % changes vs prevalue, mean (100 μg/kg nominal dose, time 70 min): −27.0%
BP % change vs. baseline [1]: 103.2% and 100.0% and 100.1%
PAP % change vs. baseline [1]: 103.3% and 100.0% and 98.5%
PAP % changes vs prevalue, mean [1]: −27.9%
BP % change vs. baseline [2]: 98.8% and 98.2% and 100.1%
PAP % change vs. baseline [2]: 98.8% and 102.2% and 99.6%
PAP % changes vs prevalue, mean [2]: −28.9%
BP % change vs. baseline [3]: 101.0% and 100.0% and 100.1%
PAP % change vs. baseline [3]: 99.4% and 97.3% and 97.5%
PAP % changes vs prevalue, mean [3]: −31.1%
BP % change vs. baseline [4]: 98.8% and 99.1% and 98.2%
PAP % change vs. baseline [4]: 94.0% and 90.4% and 94.4%
PAP % changes vs prevalue, mean [4]: −30.8%
BP % change vs. baseline [5]: 98.8% and 98.2% (2×)
PAP % change vs. baseline [5]: 87.4% and 80.2% and 88.8%
PAP % changes vs prevalue, mean [5]: −31.3%
BP % change vs. baseline [6]: 98.8% and 98.2% and 99.2%
PAP % change vs. baseline [6]: 84.3% and 75.6% and 86.1%
PAP % changes vs prevalue, mean [6]: −31.2%
BP % change vs. baseline [7]: 98.8% and 96.5% and 102.0%
PAP % change vs. baseline [7]: 82.2% and 69.4% and 82.1%
PAP % changes vs prevalue, mean [7]: −31.6%
BP % change vs. baseline [8]: 97.7% and 95.6% and 103.0%
PAP % change vs. baseline [8]: 80.0% and 67.4% and 77.3%
PAP % changes vs prevalue, mean [8]: −31.1%
BP % change vs. baseline [9]: 98.8% and 93.9% and 101.1%
PAP % change vs. baseline [9]: 78.2% and 66.2% and 74.6%
PAP % changes vs prevalue, mean [9]: −30.1%
BP % change vs. baseline [10]: 98.8% and 95.6% and 99.2%
PAP % change vs. baseline [10]: 78.1% and 65.9% and 72.4%
PAP % changes vs prevalue, mean [10]: −31.1%
BP % change vs. baseline [11]: 97.7% and 92.1% and 99.2%
PAP % change vs. baseline [11]: 78.5% and 62.7% and 72.2%
PAP % changes vs prevalue, mean [11]: −31.1%
BP % change vs. baseline (100 μg/kg nominal dose, time 190 min): 98.8% and 91.2% and 96.3%
